Patent US20250042968A1, “EPHRIN LIGAND MIMETIC PEPTIDES FOR THE TREATMENT OF NEURODEGENERATIVE DISEASES” (University of Miami, priority 2022, published 2025)

Experiments:
[1] = test system: human fetal brain-derived neural stem cells (hNSC); assay: hNSC growth on ephrin-ligand repulsive substrates; assay type: cell-based; conditions: 500 nM, 5-day culture, over control cultures
Description: Fetal brain-derived neural stem cells (hNSC): In order to evaluate the effect of xEFN peptides on human neuronal cells, StemPro hNSC were purchased from ThermoFisher Scientific (Cat. no. A15654) and cultured according to the manufacturer's recommended protocol. Briefly, cells were grown in non-adherent neurosphere suspension cultures in StemPro NSC serum-free media (NSC-SFM) (Cat. no. A10509-01) supplemented with 2 mM GlutaMAX-I supplement, 6 U/mL heparin, and 200 μM ascorbic acid (Sigma-Aldrich, Cat. no. A8960). Culture media was changed every 2 days and cells were passaged every 7 days as undifferentiated hNSC. To induce differentiation into neuronal cells, hNSC neurospheres were dissociated into single-cell suspensions using StemPro Accutase for 5 minutes at 37° C. followed by mechanical pipetting. hNSC were then plated onto Geltrex-coated culture vessels at a concentration of 2×10^4 cells/cm^2 in neuronal differentiation media consisting of NSC media without bFGF or EGF and supplemented with B-27 supplement (ThermoFisher Scientific) for 3 days prior to performing further in vitro assays.
Glial-bound efn ligands have been associated with mediating the major repulsive milieu for neuronal process in the CNS. […] Moreover, assays on the repulsive nature of efn ligand-presenting surfaces have been a mainstay in axonal guidance studies for many decade. The use of xEFN peptides to antagonize this repulsive signaling from efn ligand substrates was evaluated on human fetal brain-derived neural stem cells (hNSC).
Recombinant Efn ligands (A2, A4, and B3) containing a His-Tag were purchased from R&D Systems, and were pre-clustered using an anti-His antibody (Genetex) for 30 min. The pre-clustered Efn ligands, or anti-his antibody alone, (control) were then mixed with laminin from human placenta (Sigma-Aldrich) in suspension and used to coat the growth surface of a 24-well plate. […] The entire wells were then scanned using an EVOS FL Auto fluorescent microscope and the images were analyzed in the ImageJ software to calculate cell coverage area.

ARHGEF15 (Ephexin-5) = assay: Western blot of ARHGEF15 in mRGCs; assay type: cell-based, mouse; conditions: 500 nM
Description: (§1) On day 4, cells were treated with pre-clustered recombinant mouse EfnA5-His ligand [(+) Control, using anti-His_Tag antibody for 30 minutes] for 2 hours. Cells were then lysed in RIPA buffer containing protease and phosphatase inhibitor cocktails and maintained on ice. Protein was quantified using a BCA assay, and 10 μg of total protein was run on a TGX stain-free Any kD gel (BioRad) and transferred using the trans-blot turbo system (BioRad). Following transfer and blocking in 5% nonfat milk for 1 h, blots were probed with antibodies against RhoA, phosphorylated Rac1, ARHGEF15, Ephexin-1, or beta-actin as an endogenous loading control overnight at 4° C. Blots were then washed 3×5 min in PBS-T and incubated in the appropriate HRP-conjugated secondary antibody for 2 h at room temperature. Blots were imaged using chemiluminescent ECL substrate (Pierce) on a BioRad ChemiDoc MP imaging system and software.

isolated mouse RGCs [2] = assay: Neurite outgrowth, long-term (6 days), Incucyte Zoom live cell imaging; assay type: cell-based
Description: Mouse retinal ganglion cells (RGC): Mouse R GCs were isolated as follows. […] Following dissociation, macrophage and endothelial cells were removed from the cell suspension by panning with the anti-macrophage antiserum (Accurate Chemical, Westbury, NY). Finally, RGCs were immunopanned in plates containing the antibody against Thy1.2 and were then released by incubation with trypsin solution. RGCs were grown on poly-L-lysine coated plates in serum-free Neurobasal media (Invitrogen, Carlsbad, CA), supplemented with B-27 supplement, CNTF (10 ng/ml), and BDNF (10 ng/ml).
(§2) mRGCs were used to analyze dendrite sprouting, axonal polarization and extension, and ephrin receptor phosphorylation following treatment with xEFN peptides. RGCs were isolated as described above and plated onto 24 well plates at a concentration of 4×10^4 cells/well for short-term (48 h) experiments, or into 96-well plates at a concentration of 1,000 cells/well for long-term (6 days) experiments in an Incucyte Zoom (Essen Biosciences) instrument for live cell imaging. […] For the short-tem experiment, cells were fixed in 4% paraformaldehyde for 5 minutes, permeabilized using 0.05% Triton X-100, blocked with 5% fetal bovine serum, and incubated with primary antibody against Tubulin Beta 3 Class III (TUBB3) overnight at 4° C. Cells were then washed 3×5 min with PBS and incubated with AlexaFluor488 secondary antibody for 2 h at room temperature. Cells were mounted using SlowFade Gold Antifade mounting media with DAPI (ThermoFisher) and imaged using an EVOS FL automated fluorescent microscope (ThermoFisher). Dendrite measurements and analysis was performed by a blinded investigator using ImageJ software and the Sholl analysis plugin. […] Neurite sprouting and extension were quantified using the automated Incucyte Zoom NeuroTrack Processing algorithm for real-time, label-free neurite segmentation and quantitation (FIG. 13).

Ephexin-1 = assay: Western blot of phosphorylated Ephexin-1 in mRGCs; assay type: cell-based, mouse; conditions: 500 nM
Description: as §1

isolated mouse RGCs [3] = assay: Neurite sprouting and extension assay, short-term (48 h); assay type: cell-based
Description: Mouse retinal ganglion cells (RGC): Mouse R GCs were isolated as follows. Briefly, retinas from postnatal day 8-10 (p8-10) mouse pups were dissected and digested using a papain solution (16.5 U/mL) for 30 minutes at 37° C. Following dissociation, macrophage and endothelial cells were removed from the cell suspension by panning with the anti-macrophage antiserum (Accurate Chemical, Westbury, NY). Finally, RGCs were immunopanned in plates containing the antibody against Thy1.2 and were then released by incubation with trypsin solution. RGCs were grown on poly-L-lysine coated plates in serum-free Neurobasal media (Invitrogen, Carlsbad, CA), supplemented with B-27 supplement, CNTF (10 ng/ml), and BDNF (10 ng/ml).
as §2

[4] = test system: RGCs and visual function after optic neuropathy onset; assay: Ultrasonic shockwave optic nerve injury model (SI-TON): RGC survival, PERG, flash ERG; assay type: in vivo, mouse
Description: In this example, the effect of xEFN peptide administration on the visual function of mice in an animal model that more closely resembled the human manifestation and progression of visual dysfunction following the onset of optic neuropathy was assessed. […] Visual function was measured at 2 and 4 weeks post optic nerve injury in all groups using pattern electroretinogram (PERG) to measure RGC function, as well as flash electroretinogram (ERG) to assess rod and cone functionality.

[5] = supplemented RGC cultures, 48 h

## FTIKFQEFSPNLWGL [xEFN_RBD3]
[1]
  confluence coverage on efnA2 substrate: 120.62+/−10.89%
  confluence coverage on efnA4 substrate: 125.83+/−2.92%
  confluence coverage on efnB3 substrate: 96.51+/−7.15%
ARHGEF15 (Ephexin-5)
  ARHGEF15 (Ephexin-5) level: decrease
Isolated mouse RGCs [2]; 1 μM, 6-day period
  neurite outgrowth compared to 1 μM xEFN_F1 peptide: significantly increased
Isolated mouse RGCs [2]; 1 μM, after 32 hours of culture
  neurite length over control cultures: statistically-significant increase
Isolated mouse RGCs [2]; 1 μM, end of 6-day period
  increase in overall neurite length over day 0 measurement: 424.68+/−4.47%
Isolated mouse RGCs [2]; equal concentrations
  neurite outgrowth compared to EphB2- or EphB4-restricted targeting peptides SNEW and TYFD: statistically significant increase
Ephexin-1
  phosphorylation of Ephexin-1: decrease
Isolated mouse RGCs [3]; 500 nM, 48 h of culture, compared to vehicle (PBS) treated controls
  average axonal length: 302.16+/−40.24%
Isolated mouse RGCs [3]; isolated RGCs
  axonal extension: significantly increases
  dendritic arbor complexity: significantly increases
  neurite sprouting: significantly increases
Isolated mouse RGCs [3]; [5]
  average neurites/RGC soma: 3.43+/−0.16 neurites/RGC
  median total neurite length: 1034.68 (range: 486.26-2759.84) μm/cell
[4]; 2 weeks post optic nerve injury
  PERG amplitude over baseline recordings: decline
[4]; 4 week assessment
  visual response versus vehicle (PBS) treated animals: significantly better
[4]; 4 weeks post injury
  RGC survival compared to vehicle treated controls: significant survival effect
[4]; 4 weeks post optic nerve injury
  visual function (PERG) at the 4 week assessment: improved
